We go through 5 compounds from patent publication US20020098210A1, “FORMULATIONS AND METHODS FOR REDUCING SKIN IRRITATION” (priority 1997, published 2002).

Where two headings read alike, the source gives them in different places.

Experiment [1] relates to lactic acid skin irritation. In words: Lactic acid irritation trial, time zero test (anti-irritant applied simultaneously with irritant). The experiment is classed as in vivo, human. The conditions noted are these: time zero tests; for Percent Inhibition (average inhibition of cumulative irritation): cation salt 250 mM, lactic acid irritant, average over trials; for Percent Inhibition: representative panels, 250 mM, vehicle 10% EtOH. An excerpt: (§1) The following scaled scores were used for sensory assessment: […]

For experiment [2], the system named is lactic acid skin irritation. In words: Lactic acid irritation trial, pretreatment test (anti-irritant applied 15 minutes prior to irritant). The conditions noted are these: for Percent Inhibition (average inhibition of cumulative irritation) / Percent Inhibition: pretreatment tests; for Percent Inhibition (average inhibition of cumulative irritation): cation salt 250 mM, lactic acid irritant, average over trials; for Percent Inhibition: representative panels, 250 mM, vehicle Visible Difference; for inhibition of skin irritation (in words): salts in Elizabeth Arden Visible Difference Refining Toner, various amounts. The experiment is classed as in vivo, human.
Text: as §1

For experiment [3], the system named is skin irritation induced by topical irritants (lactic acid, glycolic acid, capryloyl salicylic acid, benzoyl peroxide). Description: Human clinical trials of anti-irritant activity (general statements). The experiment is classed as in vivo. Particulars: topical application. Here is the method:
The objective of the clinical trials was to determine whether and to what extent topical formulations of the calcium cation reduced or prevented skin irritation caused by certain severe skin irritants, including particularly lactic acid and glycolic acid (which are hydroxy acids), capryloyl salicylic acid (a β-hydroxy acid ester) and capsaicin (an isolate from cayenne and paprika known for its skin-irritating properties). The trials were conducted in a double blind, randomized, vehicle-controlled manner. Various formulations of the invention were tested in over 460 people.

Experiment [4] relates to lactic acid skin irritation. As for the experimental part: Tests were conducted in multiple panels of from 7 to 12 subjects each. Subjects were instructed not to wear any makeup or facial lotions to the clinic the day of testing. The subjects were instructed to wash their face with Ivory bar soap in the clinic prior to application of test solutions.
Lactic acid skin-irritant compositions were formulated in an appropriate vehicle prior to application to the skin of the subjects.
Controls were performed by applying corresponding formulation(s) (pretreatment and/or skin-irritant composition) with an equimolar amount of sodium chloride to a contralateral portion of the subject's skin. Typically, the test materials were applied to the face of the subject.
All test solutions (including controls) were applied in a double blind, randomized fashion using the prepared solutions as previously placed in coded vial designated for use on either the right or left side of the face (or other test area). Solutions were typically applied using a cotton swab (six strokes) or sponge applicator to the face and cheek area extending from the midline of the nose over to the center of the cheek and from the cheek bone down to the jaw line. Application was made first to the right side and then to the left.
Sensory assessment scores were recorded for each treated side of the subject's skin every minute for 15 minutes or until three consecutive scores of “zero” irritation were obtained. The following scaled scores were used for sensory assessment:
Symptom scores were cumulated, separately for the cation-treated and control-treated areas, for each individual and also for the panel as a whole. Individuals not reporting a cumulative score of at least “7” on at least one treatment area were excluded (in a blinded fashion) from further analysis in order to ascertain anti-irritant efficacy with respect to the more severely-susceptible test subjects. From a practical standpoint, scores of “0” and “1” on the above scale would be considered highly desirable for a commercial product because such a response would likely not result in a consumer ceasing to use a product.

Turning to `CC(=O)[O-].CC(=O)[O-].[Ca+2]` [Calcium acetate], in experiment [1], the “Percent Inhibition (average inhibition of cumulative irritation)” value was found to be 60% and the “Percent Inhibition” value is 65%. In experiment [2], the “Percent Inhibition (average inhibition of cumulative irritation)” value amounted to 40%, the “Percent Inhibition” value is given as 30% and the “inhibition of skin irritation (in words)” value is on record as “effective to inhibit skin irritation”. Moreover, the “anti-irritant activity (in words)” value in experiment [3] is reported as “particularly active as anti-irritants”.

Take `[Ca+2].[Cl-].[Cl-]` [Calcium chloride]: in experiment [1], the “Percent Inhibition (average inhibition of cumulative irritation)” value amounted to 65% and the “Percent Inhibition” value was determined as 61%. Further, in experiment [2], the “Percent Inhibition (average inhibition of cumulative irritation)” value came to 35%, the “Percent Inhibition” value was found to be 35% and the “inhibition of skin irritation (in words)” value is “effective to inhibit skin irritation”. In experiment [3], the “anti-irritant activity (in words)” value is listed as “particularly active as anti-irritants”.

On to `O=[N+]([O-])[O-].O=[N+]([O-])[O-].[Ca+2]` [Calcium nitrate], for which the “Percent Inhibition (average inhibition of cumulative irritation)” value in experiment [1] is reported as 90%; in experiment [2] it was 45%. The “Percent Inhibition” value in experiment [1] was found to be 85%; in experiment [2], 44%. Moreover, in experiment [2], the “inhibition of skin irritation (in words)” value was “effective to inhibit skin irritation”. Also, the “Percent Inhibition (cumulative irritation inhibition)” value in experiment [4] (calcium nitrate 31 mM) was found to be 26%; in experiment [4] (calcium nitrate 62 mM), 52%; in experiment [4] (calcium nitrate 125 mM) it was 83%; in experiment [4] (calcium nitrate 250 mM) it was 82%; in experiment [4] (calcium nitrate 500 mM) it was 67%. In addition, the “anti-irritant activity (in words)” value in experiment [3] is “particularly active as anti-irritants”.

For `[Ca+2]` [calcium cation, calcium(II)], the “anti-irritant activity (in words)” value is “significant and reproducible anti-irritant effects” in experiment [3]; “effective” in experiment [3] (listed as calcium(II) (Ca^2+)).

Turning to Calcium gluconate, the “Percent Inhibition (average inhibition of cumulative irritation)” value in experiment [1] is recorded as 40%. For the same compound, the figures for the “Percent Inhibition” value in experiment [1] and in experiment [2] were 49% and 40%, respectively. The “anti-irritant activity (in words)” value in experiment [3] is listed as “particularly active as anti-irritants”.
